The values below are quoted from earlier work in patent publication US8580300B2, “Pharmaceutical formulation for treating the upper digestive tract” (Dr. Falk Pharma GmbH, priority 2008, dated 2013).

For the series the following is noted: budesonide resorbed in the stomach/digestive tract.

With `CCCC1O[C@@H]2C[C@H]3[C@@H]4CCC5=CC(=O)C=C[C@]5(C)[C@H]4[C@@H](O)C[C@]3(C)[C@]2(C(=O)CO)O1` (stereo partly drawn) [budesonide, 16,17-(butylidenebis(oxy))-11,21-dihydroxy-(11-β,16-α)-pregna-1,4-diene-3,20-dione], the “share of the absorbed budesonide metabolised by the first-pass effect” value is 90%.
